The target of series [1] is T1, GDI2 (Homo sapiens, UniProt P50395).
T1 sequence (P50395 1-445): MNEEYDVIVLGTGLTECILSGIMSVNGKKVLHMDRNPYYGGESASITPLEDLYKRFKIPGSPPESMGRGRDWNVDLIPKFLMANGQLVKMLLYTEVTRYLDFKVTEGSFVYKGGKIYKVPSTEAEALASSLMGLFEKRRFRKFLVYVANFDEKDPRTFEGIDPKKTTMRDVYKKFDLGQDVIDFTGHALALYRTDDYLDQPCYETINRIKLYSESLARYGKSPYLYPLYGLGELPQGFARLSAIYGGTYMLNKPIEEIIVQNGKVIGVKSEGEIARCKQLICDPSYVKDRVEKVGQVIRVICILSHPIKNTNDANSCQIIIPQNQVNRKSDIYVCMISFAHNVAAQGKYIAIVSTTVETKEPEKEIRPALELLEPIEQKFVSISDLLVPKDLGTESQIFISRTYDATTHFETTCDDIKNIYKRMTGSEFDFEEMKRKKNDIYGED
The series can be described thus: Biolayer interferometry. In kind it is binding.

Series [2] concerns PDAC PDX tumors. Nature of the series: Pancreatic adenocarcinoma PDX model. In kind it is in vivo, mouse.
Series [3] concerns the target T1, GDI2. Nature of the series: GDI2 degradation by Western blot, AsPC-1 cells. In kind it is cell-based. A general note: In western blotting, separated proteins are transferred to a membrane and probed.
Series [4] relates to AsPC-1 xenograft. The series can be described thus: AsPC-1 pancreatic carcinoma xenograft model. The series is classed as in vivo, mouse.
Series [5] concerns the target T2, GDI1 (Homo sapiens, UniProt P31150).
T2 sequence (P31150 1-447): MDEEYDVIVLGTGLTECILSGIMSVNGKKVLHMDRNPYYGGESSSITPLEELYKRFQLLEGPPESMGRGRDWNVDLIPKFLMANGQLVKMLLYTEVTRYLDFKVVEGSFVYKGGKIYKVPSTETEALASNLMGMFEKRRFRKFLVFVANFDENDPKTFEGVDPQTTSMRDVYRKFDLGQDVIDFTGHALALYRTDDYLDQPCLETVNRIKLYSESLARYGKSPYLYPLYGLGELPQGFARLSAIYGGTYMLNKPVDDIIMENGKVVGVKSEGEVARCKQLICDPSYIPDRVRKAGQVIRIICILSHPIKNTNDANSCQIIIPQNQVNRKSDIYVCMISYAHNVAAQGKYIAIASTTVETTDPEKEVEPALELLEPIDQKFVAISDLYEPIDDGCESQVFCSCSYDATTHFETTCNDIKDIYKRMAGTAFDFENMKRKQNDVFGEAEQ
Nature of the series: GDI1 level by Western blot, AsPC-1 cells. The series is classed as cell-based. To be noted: up to 10 μM.

What is called Kd is a measure of binding affinity in units of concentration. Higher therefore signals weaker binding. As usually defined, the Dmax is the largest share of the target that was removed. Broadly, the DC50 is the concentration at which degradation of the target reaches its halfway point. For `Cc1cc(C)cc(COc2cc3c(cc2OCc2cc(C)cc(C)c2)[C@H]2C[C@](O)(Cc4cn(CCOCCOCCOCCNC(=O)[C@@H](CC(C)C)NC(=O)[C@@H](O)[C@H](N)Cc5ccccc5)nn4)C[C@H](C)N2CC3)c1` [Compound 21], the Kd in series [1] is 23.9 µM. Also, the Toxicity entry in series [2] (18 days of treatment) is given as “without significant toxicity”. Further, the PDAC tumor growth result in series [2] ((+)-37 40 mg/kg ip., 21 15 mg/kg ip., every 3 days, 18 days) was “successfully suppressed PDAC tumor growth”. In series [3] (ASPC1, read-out: GDI2 Dmax), the Dmax was 84.2%. For the same molecule, in series [3] (AsPC-1 cells, after 9 h of treatment), the GDI2 depleted was greater than 70%. Also, the DC50 in series [3] (read-out: GDI2 DC50, AsPC-1 cells, 0.63–10 μM, 24 h, n = 3) was found to be 1.48 µM. The “GDI2 not restored in tumor tissue” value in series [4] (15 mg/kg ip., 72 h post final injection, Western blot) is recorded as “more than 90%”. For the same molecule, in series [4] (18 days of treatment), the “Toxicity (body weight, histopathology of major organs)” value is listed as “No significant signs of toxicity”. For the same molecule, in series [4] ((+)-37 25 or 40 mg/kg ip., 21 15 mg/kg ip., every 3 days, 18 days), the “Tumor growth vs vehicle” value is given as “significantly attenuated tumor growth”. For the same molecule, the “Effect on GDI1 protein level” value in series [5] is “without affecting the GDI1 protein level”.

The values above are taken from publication PMC10598831 (JACS Au, 2023).
